{
  "source": "patent US20130028937A1",
  "about": "(LABORATORIOS DEL DR. ESTEVE, S.A., priority 2009, published 2013)",
  "key": {"[1]": {"test_system": "locomotor activity in mice", "assay": "Locomotor activity in actimeter cages", "details": "CD-1 mice, 30 min after administration", "experimental": "Male, CD-1 mice (14-18 g, Charles River) were housed in a climate-controlled room for at least 5 days prior to testing. Food and water were available ad libitum up to test time.\nThe dosing volume was 10 ml/kg.\nEight standard actimeter cages (Linton Instrumentation, Inc.) equipped with infrared beams for the detection of movement were used. After administering the compounds, the animals were returned to their homecages and then placed in the locomotor activity cages 30 min later. Moving time was measured during 30 min, with readings performed every 5 min."}, "[2]": {"test_system": "incision-induced mechanical allodynia in the rat hind paw", "assay": "Mechanical allodynia (von Frey filaments) in postoperative pain model after paw incision", "format": "in vivo", "details": "for efficacy on mechanical allodynia (in words): dose-response curve", "experimental": "Following plantar incision, rats show decreases in response thresholds graded von Frey filaments (mechanical hypersensitivity) (Brennan et al., Pain 1996, 64, 493).\nMale, Wistar rats (120-160 g, Harlan, Italy) were housed in a climate-controlled room for at least 5 days prior to testing. Food and water were available ad libitum up to test time.\nThe dosing volume was 10 ml/kg. The antiallodynic response of the animal was subsequently evaluated 60 min after drug administration.\nRats were anaesthetized with 3% isofluorane for veterinary use, employing an Ohmeda vaporizer and an anaesthesia chamber. Anaesthesia was kept during the surgical operation by a tube which directs the isoflurane vapours to the animal's snout. Once the rats were anaesthetised, they were laid down in a prone position and their right hindpaws were cleaned out with alcohol. Then, a 1 cm longitudinal incision was made with a number 23 scalpel, through skin and fascia of the plantar aspect of the paw, starting 0.5 cm from the proximal edge of the heel and extending toward the toes. Therefore, both superficial (skin) and deep (muscle) tissues and nerves were injured. Finally, the skin of the paw was stitched with a suturing stitch with breaded silk (3.0) and the wound was cleaned out with povidone.\nThe drugs were tested 4 hours after the surgery (plantar incision); 60 minutes after the administration of the product, one behavioural endpoint was evaluated: mechanical hypersensitivity or allodynia.\nMechanical allodynia was tested using von Frey filaments. Animals were placed in methacrylate cylinders on an elevated surface, with metallic mesh floor perforated in order to apply the filaments. After an acclimation period of about 30 minutes within the cylinders, both hindpaws were stimulated (the injured and the non-injured paw, serving the latter as control), starting with the lowest force filament (0.4 g) and reaching up to a 15 g filament. The animal's response to pain was manifested by the withdrawal of the paw as a consequence of the painful stimulus caused by a filament. The pressure (force in grams) threshold eliciting the withdrawal of the paw was recorded.\nThe method is based on the comparison of the effect of several doses of the combination at a determined ratio with respect to the effects achieved using different doses of each of the two agents. […] Where it is established that Zt<Zadd for a specific fixed-ratio, then that composition has a synergistic effect. The theoretical additive dose (Zadd) for the co-crystal was then calculated and compared with the experimental ED50 of the combination (Zt) as described in Tallarida, Drug synergism 2001, 298, 865-872 [10]."}, "[3]": {"details": "Wistar rats, intraperitoneal, 4 hours after plantar incision, 60 min after administration"}},
  "data": [
    {"smiles": "COc1ccc(C(CN(C)C)C2(O)CCCCC2)cc1.Cc1ccc(-c2cc(C(F)(F)F)nn2-c2ccc(S(N)(=O)=O)cc2)cc1", "note": "(racemic) [Celecoxib—(rac)-venlafaxine co-crystal (1:1)]", "values": [
      {"measurement": "effect on locomotor activity (moving time)", "setting": "[1]; intraperitoneal, 20, 40, 80 and 160 mg/kg, p>0.05", "result": "did not show any significant side-effect"},
      {"measurement": "inhibition of mechanical allodynia compared with each single drug at equivalent doses", "setting": "[2]; Wistar rats, intraperitoneal, 60 min after administration", "result": "superior benefit"},
      {"measurement": "efficacy on mechanical allodynia (in words)", "setting": "[2]; [3]", "result": "full efficacy"},
      {"measurement": "isobolographic analysis of interaction (Zt vs Zadd)", "setting": "[2]; molar ratio 1:1, experimental ED50 (Zt) vs theoretical Zadd, p>0.05 Student's t-test", "result": "additive interaction"}
    ]},
    {"smiles": "COc1ccc(C(CN(C)C)C2(O)CCCCC2)cc1", "note": "(racemic) [Venlafaxine, (rac)-1-[2-dimethylamino-1-(4-methoxyphenyl)-ethyl]cyclohexanol]", "values": [
      {"measurement": "effect on locomotor activity (moving time)", "setting": "[1]; intraperitoneal, 80 mg/kg, p<0.001", "result": "significant side-effects increasing"},
      {"measurement": "effect on locomotor activity (moving time)", "setting": "[1]; intraperitoneal, doses lower than 80 mg/kg", "result": "no statistically significant effects"},
      {"measurement": "maximum efficacy on mechanical allodynia", "setting": "[2]; Wistar rats, intraperitoneal, 4 hours after plantar incision, 60 min after administration, ceiling effect", "result": 58.40, "unit": "%"}
    ]},
    {"smiles": "Cc1ccc(-c2cc(C(F)(F)F)nn2-c2ccc(S(N)(=O)=O)cc2)cc1", "note": "[Celecoxib, 4-[5-(4-methylphenyl)-3-(trifluoromethyl)pyrazol-1-yl]benzenesulfonamide]", "values": [
      {"measurement": "effect on locomotor activity (moving time)", "setting": "[1]; intraperitoneal, 160 mg/kg, p<0.05 compared with vehicle", "result": "significant side-effects decreasing"},
      {"measurement": "effect on locomotor activity (moving time)", "setting": "[1]; intraperitoneal, doses lower than 160 mg/kg", "result": "No effects"},
      {"measurement": "efficacy on mechanical allodynia (in words)", "setting": "[2]; [3]", "result": "full efficacy"}
    ]}
  ]
}
